Results as given in patent US20060204993A1, “Methods and compositions for modulating CHK2 pathways and methods for screening for same” (priority 2005, published 2006).
Residues, ends and D or L forms follow the SMILES beside them. *: point of attachment. Cbz = O=C(OCc1ccccc1)*; CH2F = FC*

Columns and labels:
[1] = test system: DLD1-Chk2 cells; experiment: Apoptosis and mitosis markers (Annexin-V, Pancaspase, phospho-Histone H3) and Z-VAD rescue in tet-induced cells; assay type: cell-based, human; settings: DLD1-tet-Chk2#17 cells, +tet six days
Procedure: FIG. 2A is a graph showing the DNA contents of cells as measured by flow cytometry (upper panel) and the percentages of Annexin-V-positive cells and Pancaspase-positive cells determined by flow cytometric analysis (bottom panels). FIG. 2B is a photograph of fluorescent microscopy showing DLD1-tet-Chk2# 17 cells cultured in the presence or absence of tetracycline following staining with DePsipher Dye (Trevigen) and monitoring the intensity of the monomer ([…]) and aggregates ([…]) of DePsipher. FIG. 2C is a photograph of immunoblots showing DLD1-tet-Chk2 #17 cell lysates following tetracycline treatment. Lysates were prepared and subjected to immunoblotting with the antibodies indicated on the left. FIG. 2D is a series of graphs of flow cytometric analysis showing the DNA content, caspase activity and percentages of DLD1-tet-Chk2#17 cells undergoing apoptosis following treated with Z-VAD- or mock-treated (None) and cultured in the presence (+tet) or absence (−tet) of tetracycline for six days.
To investigate the effect of Chk2 expression on cell cycle progression, the cell cycle profiles of DLD1-Chk2 clones (#17 and #22) were analyzed after Chk2 induction by addition of tetracycline. […]

[2] = test system: DLD1-Chk2 clones (#17 and #22); experiment: Cell cycle profile (DNA content by flow cytometry) after tetracycline induction of Chk2; assay type: cell-based, human

Row | Compound | rescue of Chk2-induced cell death [1] | cell population with G2/M DNA content ([2]; uninduced 20%) | cell population with sub-G1 DNA content ([2]; uninduced ~4%) [%] | cell population with S DNA content ([2]; uninduced ~25%) [%] | cell population with G1 DNA content ([2]; uninduced ~52%) [%]
1 | CC(NC(=O)C(NC(=O)OCc1ccccc1)C(C)C)C(=O)NC(CC(=O)O)C(=O)CF (stereo not drawn) [Z-VAD] (Cbz-Val-Ala-Asp-CH2F; configuration not given here) | partially rescued | – | – | – | –
2 | CN(C)[C@@H]1C(O)=C(C(N)=O)C(=O)[C@@]2(O)C(O)=C3C(=O)c4c(O)cccc4[C@@](C)(O)[C@H]3C[C@@H]12 [tetracycline] | – | 30-35% | ~40 | ~9 | ~25
